Test results as given in PMC7822892, “Avian antimicrobial peptides: in vitro and in ovo characterization and protection from early chick mortality caused by yolk sac infection” (Scientific Reports, 2021).
Converted amounts (≈) assume the structure as drawn. Where a SMILES comes first, the peptide text is derived from it. Where no end group is shown, it is not given here.

Tests used:
[1] = system: human PBMCs, monocyte chemotactic protein 1 (MCP-1); parameters: method as in PMID 19524300; settings: in vitro stimulation of human PBMCs for 24 h; cited from earlier work
[2] = system: human peripheral blood mononuclear cells (PBMCs) and chicken erythrocytes; settings: cited from earlier work
[3] = system: Clostridium perfringens JP26; settings: Clostridium perfringens JP26, 10^4–10^5 CFU/ml in PBS pH 7.4, 2 h at 37 °C, duplicate, plating
[4] = system: all tested bacteria (E. coli, S. Enteritidis, S. Typhimurium, C. jejuni, C. perfringens); settings: 10^4–10^5 CFU/ml, 2 h
[5] = system: HD11 cells; experiment: HD11 cytotoxicity, WST-1 assay; settings: 1.875 to 30 µg/ml, 24 h
[6] = system: E. coli EC317; settings: EC317, 2 h, 240 µg/ml

Q: Which “MCP-1 production (in words)” value [1] does the source give for “CATH-2: mature, full-length chicken cathelicidin-2 (literature values)” here?
A: Its value is “significant induction”.

Q: Which “MCP-1 production (in words)” value [1] does the source give for “CATH-2(1–21): analog of CATH-2 (literature values)” here?
A: Its value is “significant induction”.

Q: What does the source list for RFGRFLRKIRRFRPK [CATH-2(1–15)]?
A: Toxicity (in words) [2]: non-toxic or very mildly toxic; Minimum inhibitory concentration (MIC) that kills 100% bacteria [3]: > 118.05 µM; MIC over tested Gram-negative bacteria ([4]; E. coli, S. Enteritidis, S. Typhimurium, C. jejuni): 0.92 to 7.38 µM

Q: With “SPIHACRYQRGVCIPGPCRWPYYRVGSCGSGLKSCCVRNRWA (cysteines drawn unpaired) [ABD6]” as the molecule, how does the “Effect on growth and metabolic activity of HD11 cells (in words)” value (“Effect on growth and metabolic activity” below) [5] read?
A: Its value is “not shown any significant effect”.

Q: What about the “Minimum inhibitory concentration (MIC) that kills 100% bacteria” value [3] of the same molecule?
A: The value was 50.59 µM.

Q: With “DTLACRQSHGSCSFVACRAPSVDIGTCRGGKLKCCKWAPSS (cysteines drawn unpaired) [ABD9]” as the molecule, how does the Growth inhibition [6] read?
A: Its Growth inhibition is 40–90%.

Q: What about the “Effect on growth and metabolic activity” value [5] of the same molecule?
A: Its value is “not shown any significant effect”.

Q: What about the “Minimum inhibitory concentration (MIC) that kills 100% bacteria” value [3] of the same molecule?
A: The value was over 55.97 µM.

Q: Which results are given for CC[C@H](C)[C@H](NC(=O)[C@H](CCCNC(=N)N)NC(=O)[C@H](CCCCN)NC(=O)[C@H](CS)NC(=O)[C@H](CS)NC(=O)[C@H](CC(C)C)NC(=O)[C@H](Cc1ccc(O)cc1)NC(=O)[C@H](Cc1ccccc1)NC(=O)[C@H](CCCNC(=N)N)NC(=O)[C@H](CO)NC(=O)[C@H](CS)NC(=O)[C@H](CCCCN)NC(=O)CNC(=O)[C@H](CO)NC(=O)[C@@H](NC(=O)[C@H](CC(C)C)NC(=O)[C@@H](NC(=O)[C@H](CC(C)C)NC(=O)[C@H](CO)NC(=O)[C@@H]1CCCN1C(=O)[C@H](CS)NC(=O)[C@H](CCCCN)NC(=O)[C@H](CC(C)C)NC(=O)[C@H](Cc1ccccc1)NC(=O)[C@H](C)NC(=O)[C@H](CS)NC(=O)[C@H](Cc1ccccc1)NC(=O)CNC(=O)[C@H](CO)NC(=O)[C@H](CCCCN)NC(=O)[C@H](CCCNC(=N)N)NC(=O)[C@H](Cc1ccccc1)NC(=O)[C@H](CS)NC(=O)[C@H](CC(=O)O)NC(=O)[C@H](CO)NC(=O)[C@H](CCCCN)NC(=O)[C@H](CCCNC(=N)N)NC(=O)CN)[C@@H](C)O)[C@@H](C)CC)C(=O)N[C@@H](Cc1c[nH]c2ccccc12)C(=O)O [ABD1] (H-GRKSDCFRKSGFCAFLKCPSLTLISGKCSRFYLCCKRIW-OH)?
A: Effect on growth and metabolic activity of HD11 cells (in words) [5]: not shown any significant effect; Minimum inhibitory concentration (MIC) that kills 100% bacteria [3]: 0.83 µM (≈ 3.74 µg/mL); MIC over all tested bacteria ([4]; five strains): 0.83 to 1.66 µM

Q: Which “Effect on growth and metabolic activity” value [5] does the source give for CC[C@H](C)[C@H](NC(=O)[C@H](CC(C)C)NC(=O)[C@H](Cc1c[nH]cn1)NC(=O)[C@H](CO)NC(=O)[C@@H]1CCCN1C(=O)[C@H](CS)NC(=O)CNC(=O)CNC(=O)[C@H](Cc1ccccc1)NC(=O)[C@H](Cc1c[nH]cn1)NC(=O)[C@H](CS)NC(=O)[C@H](CO)NC(=O)CNC(=O)CNC(=O)[C@H](CCCCN)NC(=O)[C@H](CS)NC(=O)[C@H](Cc1ccccc1)NC(=O)[C@H](CC(C)C)NC(=O)[C@H](CCSC)NC(=O)[C@H](CC(=O)O)NC(=O)[C@@H](N)CCCNC(=N)N)C(=O)N[C@@H](CCCCN)C(=O)N[C@H](C(=O)NCC(=O)N[C@@H](CO)C(=O)N[C@@H](CS)C(=O)N[C@@H](Cc1ccccc1)C(=O)NCC(=O)N[C@@H](Cc1ccccc1)C(=O)N[C@@H](CCCNC(=N)N)C(=O)N[C@@H](CO)C(=O)N[C@@H](CS)C(=O)N[C@@H](CS)C(=O)N[C@@H](CCCCN)C(=O)N[C@@H](Cc1c[nH]c2ccccc12)C(=O)N1CCC[C@H]1C(=O)N[C@@H](Cc1c[nH]c2ccccc12)C(=O)N[C@@H](CC(N)=O)C(=O)N[C@@H](C)C(=O)O)C(C)C [ABD2] (H-RDMLFCKGGSCHFGGCPSHLIKVGSCFGFRSCCKWPWNA-OH) here?
A: The value was “not shown any significant effect”.

Q: And the “Minimum inhibitory concentration (MIC) that kills 100% bacteria” value [3]?
A: The value was over 55.50 µM.
